Measured values taken from paper PMC10460844, “Real‐Time Monitoring of Multitarget Antimicrobial Mechanisms of Peptoids Using Label‐Free Imaging with Optical Diffraction Tomography” (Advanced Science, 2023).
Square brackets hold non-standard residues; d marks the D form. Peptide text beside a SMILES is read from it. Gly(N(CH2)2(3-indolyl)) = O=C(O)CNCCc1c[nH]c2ccccc12; Nspe = C[C@H](NCC(=O)O)c1ccccc1; Nphe = O=C(O)CNCc1ccccc1; Nlys = NCCCCNCC(=O)O

What was measured:
[1] = Analytical reversed-phase HPLC elution (hydrophobicity); type: physicochemical; settings: Table S1; analytical RP-HPLC, SunFire C18, water/ACN + 0.1% TFA, 5 to 100% B linear over 30 min, 1 mL/min, UV 220 nm; approximate comparison of hydrophobicity
Experimental: 7. HPLC chromatogram, retention time (tR), and LC-MS data
HPLC analysis of peptoids was conducted using a Waters HPLC system equipped with a Waters 2489 UV/Visible Detector, 1525 Binary HPLC Pump, 2707 Autosampler, 5CH column oven, and a C18 column (SunFire C18, 4.6 × 250 mm, 5 μm; Waters Corp., Milford, MA, USA). The mobile phases were deionized water (A, with + 0.1% TFA) and acetonitrile (ACN; B, with + 0.1% TFA). Before sample injection, the column was conditioned with 5% B for 10 min. Then, the mobile phase was maintained at 5% B for 2 min, followed by increasing B to 100% using a linear gradient over 30 min. At this point, 100% B was maintained for 5 additional min. The flow rate of the mobile phase was 1 mL/min. The sample was detected by measuring absorbance at 220 nm. […]

[2] = tested on: rat erythrocytes; experiment: Hemolysis assay; type: cell-based; settings: for HC10 / HC50: pH 7.4
Experimental: The hemolysis assay was performed using rat erythrocytes in phosphate‐buffered saline (PBS), as reported by Mendes et al.^[ [45] ^] Animal studies were approved by the Laboratory Animal Resource Center of Gwangju Institute of Science and Technology. Blood was collected from a 13‐week‐old male Sprague‐Dawley rat in tubes containing 158 USP units of sodium heparin to prevent coagulation and centrifuged at 1000 rpm for 10 min at 4 °C. Plasma was removed carefully and erythrocyte pellets were washed three times with PBS (35 mM phosphate, pH 7.4, 150 mM NaCl). Next, 150 µL of a 10% erythrocyte suspension was mixed with 50 µL of serially diluted peptoids (0–100 µM) in a 96‐well black polypropylene plates (Greiner, Kremsmünster, Austria). Untreated erythrocytes and cells lysed by the addition of 1% Triton X‐100 were used as negative and positive controls, respectively, with the 1% Triton X‐100‐treated wells being accepted to represent 100% hemolysis. The reaction mixture was incubated at 37 °C for 60 min, and the plates were centrifuged at 1000 rpm for 15 min. Aliquots (150 µL) of the supernatant were transferred to fresh 96‐well plates, and the absorbance of each well was measured at 540 nm using a microplate reader. Hemolysis induced by peptoids was calculated as the percentage value of Triton X‐100 lysed cells. The percentage of hemolysis by the extracts was calculated according to the following formula: % hemolysis = [(Abs 540 nm in the peptoid solution – Abs 540 nm in PBS) / (Abs 540 nm in 1% Triton X‐100 – Abs 540 nm in PBS)] × 100. HC10 and HC50 were defined as the peptoid concentrations that caused 10% and 50% hemolysis in rat erythrocytes, respectively. H max indicates the percentage of hemolysis observed at the maximum peptoid concentration, 100 µM throughout this study.

| HPLC elution [1] | Compound | Hmax (100 µM) [2] | HC10 [2] | HC50 [2] |
| --- | --- | --- | --- | --- |
| 47.8 % MeCN | C[C@@H](c1ccccc1)N(CC(=O)N(CCCCN)CC(=O)N(CC(=O)N(CC(=O)N(CCCCN)CC(=O)N(CCCCN)CC(=O)N(CC(=O)N(CCCCN)CC(=O)N(CCc1c[nH]c2ccccc12)CC(=O)N(CCc1c[nH]c2ccccc12)CC(N)=O)Cc1ccccc1)[C@@H](C)c1ccccc1)[C@@H](C)c1ccccc1)C(=O)CN(C(=O)CNCCCCN)[C@@H](C)c1ccccc1 [peptoid 39] (H-[Nlys][Nspe][Nspe][Nlys][Nspe][Nspe][Nlys][Nlys][Nphe][Nlys][Gly(N(CH2)2(3-indolyl))][Gly(N(CH2)2(3-indolyl))]-NH2) | 10.2±0.3% | 100 µM | > 100 µM |
| 54.1 % MeCN | C[C@@H](c1ccccc1)N(CC(=O)N(CCc1c[nH]c2ccccc12)CC(=O)N(CCCCN)CC(=O)N(CC(=O)N(CCc1c[nH]c2ccccc12)CC(=O)N(CCCCN)CC(=O)N(CC(=O)N(CCc1c[nH]c2ccccc12)CC(=O)N(CCCCN)CC(=O)N(CC(=O)N(CCc1c[nH]c2ccccc12)CC(N)=O)[C@@H](C)c1ccccc1)[C@@H](C)c1ccccc1)[C@@H](C)c1ccccc1)C(=O)CNCCCCN [peptoid 22] (H-[Nlys][Nspe][Gly(N(CH2)2(3-indolyl))][Nlys][Nspe][Gly(N(CH2)2(3-indolyl))][Nlys][Nspe][Gly(N(CH2)2(3-indolyl))][Nlys][Nspe][Gly(N(CH2)2(3-indolyl))]-NH2) | 108.6±1.1% | 6.9 µM | 19.4 µM |
| 54.7 % MeCN | C[C@@H](c1ccccc1)N(CC(=O)N(CCc1c[nH]c2ccccc12)CC(=O)N(CCCCN)CC(=O)N(CC(=O)N(CC(=O)N(CCCCN)CC(=O)N(CC(=O)N(CC(=O)N(CCCCN)CC(=O)N(CC(=O)N(CCc1c[nH]c2ccccc12)CC(N)=O)[C@@H](C)c1ccccc1)[C@@H](C)c1ccccc1)[C@@H](C)c1ccccc1)[C@@H](C)c1ccccc1)[C@@H](C)c1ccccc1)C(=O)CNCCCCN [peptoid 16] (H-[Nlys][Nspe][Gly(N(CH2)2(3-indolyl))][Nlys][Nspe][Nspe][Nlys][Nspe][Nspe][Nlys][Nspe][Gly(N(CH2)2(3-indolyl))]-NH2) | 100.3±1.7% | 13.8 µM | 25.0 µM |
| 49.4 % MeCN | C[C@@H](c1ccccc1)N(CC(N)=O)C(=O)CN(CCCCN)C(=O)CN(CCCCN)C(=O)CN(C(=O)CN(C(=O)CN(CCCCN)C(=O)CN(CCc1c[nH]c2ccccc12)C(=O)CN(C(=O)CN(CCCCN)C(=O)CN(C(=O)CN(C(=O)CNCCCCN)[C@@H](C)c1ccccc1)[C@@H](C)c1ccccc1)[C@@H](C)c1ccccc1)[C@@H](C)c1ccccc1)[C@@H](C)c1ccccc1 [peptoid 24] | 1.5±0.0% | > 100 µM | > 100 µM |

Second part, the compound before the results:

| Compound | HPLC elution [1] | Hmax (100 µM) [2] | HC10 [2] | HC50 [2] |
| --- | --- | --- | --- | --- |
| C[C@@H](c1ccccc1)N(CC(N)=O)C(=O)CN(C(=O)CN(CCCCN)C(=O)CN(CCc1c[nH]c2ccccc12)C(=O)CN(CCc1c[nH]c2ccccc12)C(=O)CN(CCCCN)C(=O)CN(C(=O)CN(C(=O)CN(CCCCN)C(=O)CN(C(=O)CN(C(=O)CNCCCCN)[C@@H](C)c1ccccc1)[C@@H](C)c1ccccc1)[C@@H](C)c1ccccc1)[C@@H](C)c1ccccc1)[C@@H](C)c1ccccc1 [peptoid 12] | 55.9 % MeCN | 87.4±2.4% | 29.1 µM | 65.2 µM |
| C[C@@H](c1ccccc1)N(CC(N)=O)C(=O)CN(C(=O)CN(CCCCN)C(=O)CN(C(=O)CN(C(=O)CN(CCCCN)C(=O)CN(C(=O)CN(C(=O)CN(CCCCN)C(=O)CN(C(=O)CN(CCCCN)C(=O)CN(CCCCN)C(=O)CN(CCc1c[nH]c2ccccc12)C(=O)CNCCc1c[nH]c2ccccc12)[C@@H](C)c1ccccc1)[C@@H](C)c1ccccc1)[C@@H](C)c1ccccc1)[C@@H](C)c1ccccc1)[C@@H](C)c1ccccc1)[C@@H](C)c1ccccc1 [peptoid 36] | 52.4 % MeCN | 89.1±3.4% | 15.3 µM | 39.4 µM |
| C[C@@H](c1ccccc1)N(CC(N)=O)C(=O)CN(C(=O)CN(CCCCN)C(=O)CN(C(=O)CN(C(=O)CN(CCCCN)C(=O)CN(CCc1c[nH]c2ccccc12)C(=O)CN(CCc1c[nH]c2ccccc12)C(=O)CN(CCCCN)C(=O)CN(CCc1c[nH]c2ccccc12)C(=O)CN(CCc1c[nH]c2ccccc12)C(=O)CNCCCCN)[C@@H](C)c1ccccc1)[C@@H](C)c1ccccc1)[C@@H](C)c1ccccc1 [peptoid 21] | 53.2 % MeCN | 83.7±2.0% | 23.2 µM | 64.9 µM |
| NCCCCNCC(=O)N(CCc1c[nH]c2ccccc12)CC(=O)N(CCc1c[nH]c2ccccc12)CC(=O)N(CCCCN)CC(=O)N(CCc1c[nH]c2ccccc12)CC(=O)N(CCc1c[nH]c2ccccc12)CC(=O)N(CCCCN)CC(=O)N(CCc1c[nH]c2ccccc12)CC(=O)N(CCc1c[nH]c2ccccc12)CC(=O)N(CCCCN)CC(=O)N(CCc1c[nH]c2ccccc12)CC(=O)N(CCc1c[nH]c2ccccc12)CC(N)=O [peptoid 23] (H-[Nlys][Gly(N(CH2)2(3-indolyl))][Gly(N(CH2)2(3-indolyl))][Nlys][Gly(N(CH2)2(3-indolyl))][Gly(N(CH2)2(3-indolyl))][Nlys][Gly(N(CH2)2(3-indolyl))][Gly(N(CH2)2(3-indolyl))][Nlys][Gly(N(CH2)2(3-indolyl))][Gly(N(CH2)2(3-indolyl))]-NH2) | 53.0 % MeCN | 72.2±0.3% | 17.1 µM | 45.2 µM |
| C[C@@H](c1ccccc1)N(CC(=O)N(CCCCN)CC(=O)N(CC(=O)N(CC(=O)N(CCCCN)CC(=O)N(CC(=O)N(CC(=O)N(CCCCN)CC(=O)N(CC(=O)N(CC(=O)N(CCc1c[nH]c2ccccc12)CC(N)=O)[C@@H](C)c1ccccc1)[C@@H](C)c1ccccc1)[C@@H](C)c1ccccc1)[C@@H](C)c1ccccc1)[C@@H](C)c1ccccc1)[C@@H](C)c1ccccc1)C(=O)CN(C(=O)CN(CCCCN)C(=O)CNCCc1c[nH]c2ccccc12)[C@@H](C)c1ccccc1 [peptoid 5] (H-[Gly(N(CH2)2(3-indolyl))][Nlys][Nspe][Nspe][Nlys][Nspe][Nspe][Nlys][Nspe][Nspe][Nlys][Nspe][Nspe][Gly(N(CH2)2(3-indolyl))]-NH2) | 58.6 % MeCN | 108.1±2.7% | < 6.3 µM | 15.3 µM |
| C[C@@H](c1ccccc1)N(CC(N)=O)C(=O)CN(C(=O)CN(CCCCN)C(=O)CN(CCc1c[nH]c2ccccc12)C(=O)CN(C(=O)CN(CCCCN)C(=O)CN(C(=O)CN(C(=O)CN(CCCCN)C(=O)CN(C(=O)CN(C(=O)CNCCCCN)[C@@H](C)c1ccccc1)[C@@H](C)c1ccccc1)[C@@H](C)c1ccccc1)[C@@H](C)c1ccccc1)[C@@H](C)c1ccccc1)[C@@H](C)c1ccccc1 [peptoid 8] | 54.5 % MeCN | 105.1±2.2% | 12.8 µM | 28.4 µM |
